The test system of the experiment is CD2F1 mice, L1210 leukemia sc, survival T/C. The experiment is described as follows: NCI In Vivo Anticancer Drug Screen. Data for tumor model L1210 Leukemia (subcutaneous) in CD2F1 (CDF1) mice. As to conditions: endpoint: median survival time, higher = longer survival. A digest of the protocol:
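Transplantable tumor-bearing mice were treated with compound; survival or tumor size measured and expressed as treated-group value (T) divided by vehicle-treated control value (C).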

Each structure is given as a SMILES string. Several values for one entry are separate records, joined by “and”; a condition that tells them apart may be missing. Identical values can stand only once. Toxic doses and inconclusive results are not listed.

With `COc1cccc2c1C(=O)c1c(O)c3c(c(O)c1C2=O)C[C@@](O)(C(C)=O)C[C@@H]3OC1CC(N)C(O)C(C)O1` (stereo partly drawn), the T/C is 97 % of control and 100 % of control (dose: 0.25 mg/kg/injection, schedule: Q01DX009 (ip), vehicle: saline); 98 % of control (dose: 0.25 mg/kg/injection, schedule: Q01DX009 (sc), vehicle: saline); 96 % of control and 98 % of control (dose: 0.5 mg/kg/injection, schedule: Q01DX009 (ip), vehicle: saline); 104 % of control (dose: 0.5 mg/kg/injection, schedule: Q01DX009 (sc), vehicle: saline); 101 % of control and 96 % of control (2×) (dose: 1.0 mg/kg/injection, schedule: Q01DX009 (ip), vehicle: saline); 107 % of control (dose: 1.0 mg/kg/injection, schedule: Q01DX009 (sc), vehicle: saline). In addition, the T/C was 100 % of control (dose: 1.5 mg/kg/injection, schedule: Q01DX009 (ip), vehicle: saline); 101 % of control and 102 % of control and 98 % of control (dose: 2.0 mg/kg/injection, schedule: Q01DX009 (ip), vehicle: saline); 109 % of control (dose: 2.0 mg/kg/injection, schedule: Q01DX009 (sc), vehicle: saline); 97 % of control (dose: 3.0 mg/kg/injection, schedule: Q01DX009 (ip), vehicle: saline); 98 % of control (dose: 4.0 mg/kg/injection, schedule: Q01DX009 (ip), vehicle: saline); 120 % of control (dose: 4.0 mg/kg/injection, schedule: Q01DX009 (sc), vehicle: saline). Further, the T/C reads like this: (dose: 16.0 mg/kg/injection, schedule: Q01DX009 (sc), vehicle: saline) 118 % of control; (dose: 23.0 mg/kg/injection, schedule: Q01DX Z (sc), vehicle: water) 120 % of control.
For the molecule `O=C1c2ccccc2C(=O)c2c(NCCNCCO)ccc(O)c21`, the T/C reads like this: (dose: 5.0 mg/kg/injection, schedule: Q01DX009 (ip), vehicle: suspension in saline) 103 % of control and 104 % of control; (dose: 10.0 mg/kg/injection, schedule: Q01DX009 (ip), vehicle: suspension in saline) 103 % of control and 106 % of control; (dose: 20.0 mg/kg/injection, schedule: Q01DX009 (ip), vehicle: suspension in saline) 104 % of control and 108 % of control; (dose: 40.0 mg/kg/injection, schedule: Q01DX009 (ip), vehicle: suspension in saline) 103 % of control and 106 % of control; (dose: 80.0 mg/kg/injection, schedule: Q01DX009 (ip), vehicle: suspension in saline) 114 % of control and 116 % of control.
Regarding `Nc1n[nH]c(N)n1`, the T/C reads like this: (dose: 259.0 mg/kg/injection, schedule: Q01DX Z (sc), vehicle: water) 100 % of control; (dose: 432.0 mg/kg/injection, schedule: Q01DX Z (sc), vehicle: water) 113 % of control; (dose: 720.0 mg/kg/injection, schedule: Q01DX Z (sc), vehicle: water) 118 % of control; (dose: 1200.0 mg/kg/injection, schedule: Q01DX Z (sc), vehicle: water) 122 % of control.
On to `O=P1(NCCCl)OCCCN1CCCl` (stereo not drawn), for which the T/C is 122 % of control (dose: 6.25 mg/kg/injection, schedule: Q01DX009 (ip), vehicle: saline); 116 % of control (dose: 6.25 mg/kg/injection, schedule: Q01DX009 (sc), vehicle: saline); 151 % of control (dose: 12.5 mg/kg/injection, schedule: Q01DX009 (ip), vehicle: saline); 161 % of control (dose: 25.0 mg/kg/injection, schedule: Q01DX009 (ip), vehicle: saline); 169 % of control and 188 % of control (dose: 50.0 mg/kg/injection, schedule: Q01DX009 (ip), vehicle: saline); 179 % of control (dose: 66.7 mg/kg/injection, schedule: Q01DX009 (ip), vehicle: saline). In addition, the T/C by setting is: (dose: 66.7 mg/kg/injection, schedule: Q01DX009 (sc), vehicle: saline) 197 % of control; (dose: 100.0 mg/kg/injection, schedule: Q01DX009 (ip), vehicle: saline) 188 % of control and 235 % of control; (dose: 100.0 mg/kg/injection, schedule: Q01DX009 (sc), vehicle: saline) 155 % of control and 182 % of control and 232 % of control; (dose: 133.4 mg/kg/injection, schedule: Q01DX009 (sc), vehicle: saline) 265 % of control; (dose: 150.0 mg/kg/injection, schedule: Q01DX009 (ip), vehicle: saline) 247 % of control; (dose: 150.0 mg/kg/injection, schedule: Q01DX009 (sc), vehicle: saline) 258 % of control. The T/C (dose: 200.0 mg/kg/injection, schedule: Q01DX001 (sc), vehicle: water) is 187 % of control and 188 % of control; the T/C (dose: 300.0 mg/kg/injection, schedule: Q01DX001 (sc), vehicle: water) was 211 % of control and 217 % of control; the T/C (dose: 300.0 mg/kg/injection, schedule: Q01DX009 (sc), vehicle: saline) is 176 % of control; the T/C (dose: 400.0 mg/kg/injection, schedule: Q01DX001 (sc), vehicle: water) was 241 % of control; the T/C (dose: 400.0 mg/kg/injection, schedule: Q01DX009 (ip), vehicle: saline) was 98 % of control; the T/C (dose: 400.0 mg/kg/injection, schedule: Q01DX009 (sc), vehicle: saline) is 108 % of control. The T/C is 241 % of control and 244 % of control (dose: 500.0 mg/kg/injection, schedule: Q01DX001 (sc), vehicle: water); 300 % of control and 302 % of control (dose: 600.0 mg/kg/injection, schedule: Q01DX001 (sc), vehicle: water); 264 % of control and 290 % of control (dose: 700.0 mg/kg/injection, schedule: Q01DX001 (sc), vehicle: water).
Consider `Nc1nc(N)c2[nH]cnc2n1`, for which the T/C is 106 % of control (dose: 20.0 mg/kg/injection, schedule: Q01DX Z (sc), vehicle: steriod suspending solution); 100 % of control (dose: 40.0 mg/kg/injection, schedule: Q01DX Z (sc), vehicle: steriod suspending solution); 100 % of control (dose: 80.0 mg/kg/injection, schedule: Q01DX Z (sc), vehicle: steriod suspending solution); 100 % of control (dose: 160.0 mg/kg/injection, schedule: Q01DX Z (sc), vehicle: steriod suspending solution).
In the case of `N#Cc1c(-c2ccc(F)cc2)c(-c2ccc(F)cc2)nn(CCO)c1=O`, the T/C runs as follows: (dose: 108.0 mg/kg/injection, schedule: Q01DX005 (ip), vehicle: distilled water + Tween-80 + alcohol) 109 % of control; (dose: 180.0 mg/kg/injection, schedule: Q01DX005 (ip), vehicle: distilled water + Tween-80 + alcohol) 113 % of control; (dose: 300.0 mg/kg/injection, schedule: Q01DX005 (ip), vehicle: distilled water + Tween-80 + alcohol) 113 % of control; (dose: 833.0 mg/kg/injection, schedule: Q01DX005 (ip), vehicle: distilled water + Tween-80 + alcohol) 178 % of control.
Consider `O=NN(CCCl)C(=O)NC1CC2CCC1C2` (stereo not drawn), for which the T/C runs as follows: (dose: 3.75 mg/kg/injection, schedule: Q01DX Z (sc), vehicle: carboxymethylcellulose (CMC)) 94 % of control; (dose: 7.5 mg/kg/injection, schedule: Q01DX Z (sc), vehicle: carboxymethylcellulose (CMC)) 94 % of control; (dose: 15.0 mg/kg/injection, schedule: Q01DX Z (sc), vehicle: carboxymethylcellulose (CMC)) 117 % of control; (dose: 30.0 mg/kg/injection, schedule: Q01DX Z (sc), vehicle: carboxymethylcellulose (CMC)) 288 % of control; (dose: 60.0 mg/kg/injection, schedule: Q01DX Z (sc), vehicle: carboxymethylcellulose (CMC)) 200 % of control.
As to `O=C(CSc1ncnc2nc[nH]c12)c1ccccc1`, the T/C is 95 % of control (dose: 38.9 mg/kg/injection, schedule: Q01DX Z (sc), vehicle: methylcellulose (MC)); 95 % of control (dose: 64.8 mg/kg/injection, schedule: Q01DX Z (sc), vehicle: methylcellulose (MC)); 100 % of control (dose: 108.0 mg/kg/injection, schedule: Q01DX Z (sc), vehicle: methylcellulose (MC)); 100 % of control (dose: 180.0 mg/kg/injection, schedule: Q01DX Z (sc), vehicle: methylcellulose (MC)); 100 % of control (dose: 300.0 mg/kg/injection, schedule: Q01DX Z (sc), vehicle: methylcellulose (MC)); 100 % of control (dose: 500.0 mg/kg/injection, schedule: Q01DX Z (sc), vehicle: methylcellulose (MC)).
Consider `COC1=C(N)C(=O)c2nc(-c3nc(C(=O)O)c(C)c(-c4ccc(OC)c(OC)c4O)c3N)ccc2C1=O`, for which the T/C is, setting by setting: (dose: 0.13 mg/kg/injection, schedule: Q01DX Z (sc), vehicle: water) 110 % of control; (dose: 0.22 mg/kg/injection, schedule: Q01DX Z (sc), vehicle: water) 110 % of control; (dose: 0.36 mg/kg/injection, schedule: Q01DX Z (sc), vehicle: water) 110 % of control; (dose: 0.6 mg/kg/injection, schedule: Q01DX Z (sc), vehicle: water) 105 % of control; (dose: 1.0 mg/kg/injection, schedule: Q01DX Z (sc), vehicle: water) 110 % of control.

(Values after PubChem BioAssay AID258 (DTP/NCI, 2004).)
